“Also recorded” adds a separate entry of the source. Read-outs that look alike come from different tables or passages of the source. Bridge positions count the residues as written; N and C are the ends. Ends that are not written are not given here.
Assays:
hMC4R [1] = biological target: T1, hMC4R (Homo sapiens, UniProt P32245); experiment: Competitive displacement binding, [125I]-NDP-MSH, hMC4R; settings: 100 μM, stably expressing HEK293 cells, 1 h incubation
hMC1R [2] = biological target: T2, hMC1R (Homo sapiens, UniProt Q01726); settings: human MC1R; HEK293 cells; cited from earlier work
hMC1R [3] = biological target: T2, hMC1R; settings: transiently transfected HEK293 cells, Eu-NDP-MSH, 2 h incubation; cited from earlier work
hMC4R [4] = biological target: T1, hMC4R; settings: transiently transfected HEK293 cells, Eu-NDP-MSH, 2 h incubation; cited from earlier work
MC1R [5] = settings: cited from earlier work
MC1R [6] = settings: B16 cells, cited from earlier work
MC1R [7] = settings: primary melanocytes, cited from earlier work
male Wistar rats [8] = settings: 7 μg (1.2 nmol) ICV at the onset of a 24 h fast, vs vehicle; cited from earlier work
male Wistar rats [9] = settings: ad libitum; adult male Wistar rats; up to 2 nmol; cited from earlier work
mMC1R = mMC1R (Mus musculus, UniProt Q01727); experiment: cAMP AlphaScreen agonist assay, mMC1R; settings: mMC1R; up to 100 μM; HEK293 cells, cAMP
mMC5R = mMC5R (Mus musculus, UniProt P41149); experiment: cAMP AlphaScreen agonist assay, mMC5R; settings: mMC5R; up to 100 μM; HEK293 cells, cAMP
hMC1R [10] = biological target: T2, hMC1R; experiment: cAMP AlphaScreen agonist assay, hMC1R; settings: hMC1R; up to 100 μM; HEK293 cells, cAMP
hMC4R [11] = biological target: T1, hMC4R; experiment: cAMP AlphaScreen agonist assay, hMC4R; settings: hMC4R; up to 100 μM; HEK293 cells, cAMP

T2 sequence (Q01726 whole entry): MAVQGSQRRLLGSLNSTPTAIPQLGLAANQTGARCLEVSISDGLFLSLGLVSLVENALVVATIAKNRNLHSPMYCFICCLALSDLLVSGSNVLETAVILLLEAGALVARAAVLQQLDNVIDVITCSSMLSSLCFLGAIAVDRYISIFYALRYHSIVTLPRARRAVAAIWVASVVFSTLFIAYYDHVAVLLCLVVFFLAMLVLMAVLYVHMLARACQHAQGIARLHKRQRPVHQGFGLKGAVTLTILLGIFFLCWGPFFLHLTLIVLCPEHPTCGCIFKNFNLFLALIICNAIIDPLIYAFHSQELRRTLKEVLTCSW
T1 sequence (P32245 whole entry): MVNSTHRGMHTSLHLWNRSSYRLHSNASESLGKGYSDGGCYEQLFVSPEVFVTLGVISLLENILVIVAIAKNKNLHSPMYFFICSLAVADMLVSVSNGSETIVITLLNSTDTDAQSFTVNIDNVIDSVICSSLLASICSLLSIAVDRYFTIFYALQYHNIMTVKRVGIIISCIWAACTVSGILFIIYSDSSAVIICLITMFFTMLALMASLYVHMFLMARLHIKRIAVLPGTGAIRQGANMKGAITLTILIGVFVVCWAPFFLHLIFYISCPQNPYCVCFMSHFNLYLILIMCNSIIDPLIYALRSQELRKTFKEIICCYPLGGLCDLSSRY
Sequence of mMC5R (P41149 whole entry): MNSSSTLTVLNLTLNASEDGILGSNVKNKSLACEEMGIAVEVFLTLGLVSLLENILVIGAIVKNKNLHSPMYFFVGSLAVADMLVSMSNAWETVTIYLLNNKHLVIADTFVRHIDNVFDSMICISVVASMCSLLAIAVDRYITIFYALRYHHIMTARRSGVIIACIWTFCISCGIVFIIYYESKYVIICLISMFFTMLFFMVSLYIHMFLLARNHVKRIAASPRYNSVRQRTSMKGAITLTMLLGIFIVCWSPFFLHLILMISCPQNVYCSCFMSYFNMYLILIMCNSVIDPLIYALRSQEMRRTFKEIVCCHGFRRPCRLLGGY
Sequence of mMC1R (Q01727 whole entry): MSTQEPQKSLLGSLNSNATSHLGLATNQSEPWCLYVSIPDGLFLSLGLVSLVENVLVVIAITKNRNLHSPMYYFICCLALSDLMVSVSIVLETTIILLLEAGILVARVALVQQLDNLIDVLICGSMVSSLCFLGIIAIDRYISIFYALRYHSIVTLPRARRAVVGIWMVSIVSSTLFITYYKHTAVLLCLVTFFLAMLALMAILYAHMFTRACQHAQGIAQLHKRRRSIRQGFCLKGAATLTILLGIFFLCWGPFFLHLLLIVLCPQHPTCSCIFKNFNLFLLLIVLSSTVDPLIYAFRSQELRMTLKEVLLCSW

What does the source list for “GIINTLQKYYCRVRGGRCAVLSCLPKEEQIGKCSTRGRKCCRRKK (disulfide 11-40, 18-33, 23-41) [hBD3]”?
Displacement of radiolabeled NDP-MSH at 100 μM (hMC4R [1]): 50%; Binding affinity (hMC1R [2]): 13.8 nM; Binding affinity (hMC1R [3]): 42 nM; Binding affinity (hMC4R [4]): 110 nM; Effect on NDP-MSH induction of cAMP (MC1R [5]; HEK293 cells expressing the MC1R, 100 nM): lower the agonist induction of cAMP; cAMP response vs maximal response of 1 nM NDP-MSH (MC1R [5]; HEK293 cells expressing the MC1R, 300 nM): lower than the maximal response of 1 nM NDP-MSH; cAMP levels (MC1R [5]; HEK293 cells, 100 and 300 nM): dose dependent increase in cAMP levels; Effect on NDP-MSH induction of cAMP (MC1R [6]; 100 nM): lower the agonist induction of cAMP; cAMP signal (MC1R [6]; up to 100 nM): no cAMP signal; Effect on α-MSH induction of cAMP (MC1R [7]; 100 nM): lower the agonist induction of cAMP; cAMP signal (MC1R [7]; up to 100 nM): no cAMP signal; Body weight (male Wistar rats [8]): decreased weight gain; also recorded: slower return to pre-fast weight; Food intake (male Wistar rats [8]): decrease food intake; also recorded: significant decreases in food intake; also recorded: consumed less food; Food intake or body weight change (male Wistar rats [9]): does not result in a statistical change in food intake or body weight change; Agonist efficacy (in words) (mMC1R): Full agonist activity; Agonist efficacy (in words) (mMC5R): Full agonist activity; Agonist efficacy (in words) (hMC1R [10]): Full agonist activity; Agonist efficacy (in words) (hMC4R [11]): Full agonist activity

Source: publication PMC6007841 (Journal of medicinal chemistry, 2018)
